One data set has as its target PD-1/PD-L1 (Homo sapiens (Human), UniProt Q9NZQ7). As to the kind of experiment: PD-1/PD-L1 Binding Assay (Alphascreen). A digest of the protocol:
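PD-1/PD-L1 binding detected by anti-6×His acceptor and streptavidin donor beads after 120 min in the dark at 25 °C. Beforehand, the two proteins were incubated 15 min at 25 °C with inhibitor at 0.015–300 nM (1% DMSO). IC50 comes from a log concentration–response curve.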
On the technique in general: Bead proximity is the source of the signal in Alpha formats.

Data set [1] is described as follows: Pharmacokinetic Assay, single oral dose 100 mg/kg (Table 11). Particulars: mouse, C57 female mice, oral (intragastric), plasma. The format is in vivo. On the procedure:
Adult C57 female mice were received to single-dose of the test compounds with […], 10% Kolliphor^@HS 15 and 80% saline as excipients, the mice (n=9) were giving oral administration (intragastric administration) with the compounds at a dose of 100 mg/kg. Time of blood collection: 15 min, 30 min, 1 h, 2 h, 4 h, 7 h, 24 h. Approximately 0.1 mL of whole blood was collected from retro-orbital venous plexus of 3 mice at each time point, and placed into tubes that contained K2-EDTA as an anticoagulant. The whole blood was centrifuged at 4° C. and 4000 rpm for 10 min. The plasma was transferred into centrifuge tubes, and stored at −20° C. until being analyzed. Concentrations of test compounds in the plasma samples were analyzed with liquid chromatography-tandem mass spectrometry (LC-MS/MS). Plasma concentration-time data of individual animals was analyzed using Microsoft Excel 2010. Non-compartmental model was introduced in concentration analysis. The pharmacokinetic parameters of the test compounds were calculated using WinNonlin (version 4.1; Pharsight) software.

Molecules are shown by their SMILES.

Chain of PD-1/PD-L1 (Q9NZQ7 19-238): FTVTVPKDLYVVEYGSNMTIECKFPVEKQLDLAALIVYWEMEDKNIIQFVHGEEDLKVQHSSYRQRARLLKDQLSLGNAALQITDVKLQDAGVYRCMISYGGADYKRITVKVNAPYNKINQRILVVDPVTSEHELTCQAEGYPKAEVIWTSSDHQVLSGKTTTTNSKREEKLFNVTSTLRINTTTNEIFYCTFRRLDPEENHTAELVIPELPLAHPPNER

`COC[C@@H]1CCCN1Cc1cc2nc(-c3cccc(-c4cccc(-c5nc6cc(CN7CCC[C@H]7C(=O)O)c(OC(F)F)cc6o5)c4C)c3C)oc2cc1OC(F)F` [Example 63, ((6-(difluoromethoxy)-2-(3′-(6-(difluoromethoxy)-5-(((S)-2-(methoxymethyl)pyrrolidin-1-yl)methyl)benzo[d]oxazol-2-yl)-2,2′-dimethyl-[1,1′-biphenyl]-3-yl)benzo[d]oxazol-5-yl)methyl)-L-proline]: the IC50 (as a rule, the concentration needed to halve the response being measured) at PD-1/PD-L1 (numeric values) was 5.7 nM. In data set [1], the AUC – broadly, the area under the concentration-time curve, a measure of exposure – stood at 43.7 µg·h/mL; the highest level (Cmax) was 2920 ng/mL; the time of peak concentration (Tmax) – broadly, the time at which the peak concentration occurs – worked out at 1 h; the half-life (commonly the time in which the quantity being followed falls by half) is 5.8 h.
For `Cc1c(-c2nc3cc(CNC[C@@H]4CCCO4)c(OC(F)F)cc3o2)cccc1-c1cccc(-c2nc3cc(CN4CCC[C@H]4C(=O)O)c(OC(F)F)cc3o2)c1C` [Example 64, ((6-(difluoromethoxy)-2-(3′-(6-(difluoromethoxy)-5-(((((S)-tetrahydrofuran-2-yl)methyl)amino)methyl)benzo[d]oxazol-2-yl)-2,2′-dimethyl-[1,1′-biphenyl]-3-yl)benzo[d]oxazol-5-yl)methyl)-L-proline] the same measures were 1.8 nM, 61.5 µg·h/mL, 4320 ng/mL, 7 h and 7.2 h.
In turn, `Cc1c(-c2nc3cc(CN4CCC[C@H]4C(=O)O)c(OC(F)F)cc3o2)cccc1-c1cccc(-c2nc3cc(CN4CCCC4)c(OC(F)F)cc3o2)c1C#N` [Example 65, ((2-(2′-cyano-3′-(6-(difluoromethoxy)-5-(pyrrolidin-1-ylmethyl)benzo[d]oxazol-2-yl)-2-methyl-[1,1′-biphenyl]-3-yl)-6-(difluoromethoxy)benzo[d]oxazol-5-yl)methyl)proline] came in with an IC50 on PD-1/PD-L1 (numeric values) of 1.3 nM. In data set [1], the AUC was 40.4 µg·h/mL, the highest level (Cmax) was 2460 ng/mL, the Tmax stood at 4 h and the half-life is 10.7 h.
`Cc1c(-c2nc3cc(CN4CC5(CC5)C4)c(OC(F)F)cc3o2)cccc1-c1cccc(-c2nc3cc(CN4CCC[C@H]4C(=O)O)c(OC(F)F)cc3o2)c1C` [Example 74, ((2-(3′-(5-((5-azaspiro [2.3]hexan-5-yl)methyl)-6-(difluoromethoxy)benzo[d]oxazol-2-yl)-2,2′-dimethyl-[1,1′-biphenyl]-3-yl)-6-(difluoromethoxy)benzo[d]oxazol-5-yl)methyl)-L-proline] showed an IC50 at PD-1/PD-L1 (numeric values) of 1.1 nM. Besides, in data set [1], the AUC amounted to 59.5 µg·h/mL, the Cmax (commonly the highest concentration seen after dosing) came out at 4460 ng/mL, the Tmax stood at 4 h and the half-life was 8.2 h.
The molecule `Cc1c(-c2nc3cc(CN4CCC[C@H]4C(=O)O)c(OC(F)F)cc3o2)cccc1-c1cccc(-c2nc3cc(CN4CCC(C)C4)cc(C(F)(F)F)c3o2)c1C` (stereo partly drawn) [Example 88, ((6-(difluoromethoxy)-2-(2,2′-dimethyl-3′-(5-((3-methylpyrrolidin-1-yl)methyl)-7-(trifluoromethyl)benzo[d]oxazol-2-yl)-[1,1′-biphenyl]-3-yl)benzo[d]oxazol-5-yl)methyl)-L-proline] gave an IC50 at PD-1/PD-L1 (range symbols) of 0.1 to 5 nM. Further, in data set [1], the AUC is 2020 µg·h/mL, the highest level (Cmax) was 117000 ng/mL and the Tmax came to 24 h.
`Cc1c(-c2nc3cc(CN4CCC[C@H]4C(=O)O)c(OC(F)F)cc3o2)cccc1-c1cccc(-c2nc3cc(CN4CC(C)(C)C4)cc(C(F)(F)F)c3o2)c1C` [Example 93, ((6-(difluoromethoxy)-2-(3′-(5-((3,3-dimethylazetidin-1-yl)methyl)-7-(trifluoromethyl)benzo[d]oxazol-2-yl)-2,2′-dimethyl-[1,1′-biphenyl]-3-yl)benzo[d]oxazol-5-yl)methyl)-L-proline] displayed an IC50 at PD-1/PD-L1 (range symbols) of 0.1 to 5 nM. In data set [1], the AUC worked out at 163 µg·h/mL, the Cmax is 9220 ng/mL and the Tmax amounted to 4 h.
`Cc1c(-c2nc3cc(CN4CCC[C@H]4C(=O)O)c(OC(F)F)cc3o2)cccc1-c1cccc(-c2nc3cc(CN4CCCC4)cc(F)c3o2)c1C` [Example 95, ((6-(difluoromethoxy)-2-(3′-(7-fluoro-5-(pyrrolidin-1-ylmethyl)benzo[d]oxazol-2-yl)-2,2′-dimethyl-[1,1′-biphenyl]-3-yl)benzo[d]oxazol-5-yl)methyl)-L-proline] displayed an IC50 at PD-1/PD-L1 (numeric values) of 1.4 nM. Also, in data set [1], the AUC came to 22.9 µg·h/mL, the concentration peaked (Cmax) at 2030 ng/mL, the Tmax worked out at 4 h and the half-life was 6.48 h.
Consider `Cc1c(-c2nc3cc(CN4CCCC4)ccc3o2)cccc1-c1cccc(-c2nc3cc(CN4CCC[C@H]4C(=O)O)c(OC(F)F)cc3o2)c1C` [Example 98, ((6-(difluoromethoxy)-2-(2,2′-dimethyl-3′-(5-(pyrrolidin-1-ylmethyl)benzo[d]oxazol-2-yl)-[1,1′-biphenyl]-3-yl)benzo[d]oxazol-5-yl)methyl)-L-proline], for which the IC50 on PD-1/PD-L1 (range symbols) lay within 0.1 to 5 nM. In addition, in data set [1], the AUC was 8.7 µg·h/mL, the maximum concentration (Cmax) turned out to be 1010 ng/mL, the Tmax was 1 h and the half-life was 4.47 h.
Molecule `Cc1c(-c2nc3cc(CN4CCC[C@H]4C(=O)O)c(OC(F)F)cc3o2)cccc1-c1cccc(-c2nc3cc(CN4CCCC4)cc(C(F)(F)F)c3o2)c1C` [Example 100, ((6-(difluoromethoxy)-2-(2,2′-dimethyl-3′-(5-(pyrrolidin-1-ylmethyl)-7-(trifluoromethyl)benzo[d]oxazol-2-yl)-[1,1′-biphenyl]-3-yl)benzo[d]oxazol-5-yl)methyl)-L-proline] displayed an IC50 on PD-1/PD-L1 (range symbols) of 0.1 to 5 nM. Further, in data set [1], the AUC came to 235 µg·h/mL, the Cmax came out at 18900 ng/mL, the Tmax was 4 h and the half-life is 10.5 h.
In the case of `Cc1c(-c2nc3ccc(CN4CCCC4)cc3o2)cccc1-c1cccc(-c2nc3cc(CN4CCC[C@H]4C(=O)O)c(OC(F)F)cc3o2)c1C` [Example 108, ((6-(difluoromethoxy)-2-(2,2′-dimethyl-3′-(6-(pyrrolidin-1-ylmethyl)benzo[d]oxazol-2-yl)-[1,1′-biphenyl]-3-yl)benzo[d]oxazol-5-yl)methyl)-L-proline], the IC50 at PD-1/PD-L1 (range symbols) lay within 0.1 to 5 nM. Moreover, in data set [1], the AUC is 10.1 µg·h/mL, the highest level (Cmax) was 713 ng/mL, the time to peak (Tmax) turned out to be 1 h and the half-life is 21.7 h.
Take `Cc1c(Nc2nccc3cc(CN4CCC[C@@]4(C)C(=O)O)cnc23)cccc1-c1cccc(-c2nc3cc(CN4CCC[C@H]4C(=O)O)c(OC(F)F)cc3o2)c1C` [Example 171, (S)-1-((8-((3′-(5-(((S)-2-carboxypyrrolidin-1-yl)methyl)-6-(difluoromethoxy)benzo[d]oxazol-2-yl)-2,2′-dimethyl-[1,1′-biphenyl]-3-yl)amino)-1,7-naphthyridin-3-yl)methyl)-2-methylpyrrolidine-2-carboxylic acid]: at PD-1/PD-L1 (range symbols), the IC50 lay within 0.1 to 5 nM. For the same molecule, in data set [1], the AUC came to 3.47 µg·h/mL, the Cmax stood at 965 ng/mL, the Tmax is 1 h and the half-life is 3.66 h.
Take `Cc1c(Nc2nccc3cc(CN4CCC(O)C4)cnc23)cccc1-c1cccc(-c2nc3cc(CN4CCC[C@H]4C(=O)O)c(OC(F)F)cc3o2)c1C` (stereo partly drawn) [Example 175, ((6-(difluoromethoxy)-2-(3′-((3-((3-hydroxypyrrolidin-1-yl)methyl)-1,7-naphthyridin-8-yl)amino)-2,2′-dimethyl-[1,1′-biphenyl]-3-yl)benzo[d]oxazol-5-yl)methyl)-L-proline]: the IC50 on PD-1/PD-L1 (numeric values) is 3.4 nM. Besides, in data set [1], the AUC turned out to be 19.9 µg·h/mL, the Cmax is 1630 ng/mL, the Tmax stood at 2 h and the half-life is 3.63 h.

The values are drawn from patent US12187713B2, “Immunomodulators, compositions and methods thereof” (Betta Pharmaceuticals Co., Ltd, priority 2019, dated 2025).
